Assay results reported in the supplement of paper PMC10290057.
Where a name gives a salt, the structure may show the parent alone.

Assays:
HCT116 [1] = assay: efficacy (fitted maximal change in viability relative to DMSO control); higher = less cytotoxic (negative = loss of viability); details: 48 h
HCT116 [2] = assay: AC50 cell viability (CellTiter-Glo); higher = less potent; details: 48 h
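For AC50 cell viability (CellTiter-Glo) in this document: HCT116 colorectal carcinoma cells screened at five concentrations per compound, luminescent viability scaled between DMSO wells and empty wells on each plate, curves fitted per compound.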
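For efficacy (fitted maximal change in viability relative to DMSO control) in this document: Luminescence-based viability readout, five doses per compound, normalized against on-plate DMSO and empty-well controls, followed by dose-response curve fitting for every drug.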

Compound: CCN(CC)CCCCNc1ncc2cc(-c3cc(OC)cc(OC)c3)c(NC(=O)NC(C)(C)C)nc2n1
- efficacy (HCT116 [1]): -117%
- AC50 cell viability (HCT116 [2]): 18.6 µM

Compound: CN1CCN(c2cccc(Nc3nc4c(-c5ccc([S+](C)(=O)[O-])cc5)cccn4n3)c2)CC1
- efficacy (HCT116 [1]): -121%
- AC50 cell viability (HCT116 [2]): 16.6 µM

Compound: OCCCNc1cc(-c2ccnc(Nc3cccc(Cl)c3)n2)ccn1
- efficacy (HCT116 [1]): -58.5%
- AC50 cell viability (HCT116 [2]): 0.059 µM

Compound: COc1ccc(Cl)c(Nc2nc3ccccc3nc2N[S+](=O)([O-])c2cccc(NC(=O)C(C)(C)N)c2)c1 [Pilaralisib]
- efficacy (HCT116 [1]): -39.5%
- AC50 cell viability (HCT116 [2]): 16.6 µM

Compound: COc1cccc(OCCCN)c1-c1cc(Nc2cnc(C#N)cn2)n[nH]1 [Prexasertib]
- efficacy (HCT116 [1]): -111%
- AC50 cell viability (HCT116 [2]): 3.72 µM

Compound: COc1cc(N2CCC(N3CCN(C)CC3)CC2)ccc1Nc1ncc(Cl)c(Nc2ccccc2P(C)(C)=O)n1 [Brigatinib]
- efficacy (HCT116 [1]): -75.3%
- AC50 cell viability (HCT116 [2]): 0.525 µM

Compound: C[C@@H]1CN(Cc2ccc(F)cc2)CCN1C(=O)COc1ccc(Cl)cc1NC(N)=O [BX-471]
- efficacy (HCT116 [1]): -59.8%
- AC50 cell viability (HCT116 [2]): 0.209 µM

Compound: NC/1=N/C(=O)C2=C([NH]C=C2CCC3=CC=C(C=C3)C(=O)N[C@@H](CCC(O)=O)C(O)=O)N1 [Pemetrexed]
- efficacy (HCT116 [1]): -40.7%
- AC50 cell viability (HCT116 [2]): 0.742 µM

Compound: Cn1ncc2cc(-c3cnc(N)c(Cl)c3N3CCC4(CCNC4=O)CC3)ccc21
- efficacy (HCT116 [1]): -46.1%
- AC50 cell viability (HCT116 [2]): 16.6 µM

Compound: CC1(COc2ccc3c(c2)ncn3-c2ccc3cccc(N4CCC(N)CC4)c3n2)COC1 [Crenolanib]
- efficacy (HCT116 [1]): -104%
- AC50 cell viability (HCT116 [2]): 2.95 µM

Compound: C[C@@H]1COCCN1c1cc(-c2ccnn2C)c2ccnc(-c3ccn[nH]3)c2n1
- efficacy (HCT116 [1]): -70.3%
- AC50 cell viability (HCT116 [2]): 0.525 µM

Compound: COc1cc2nccc(Oc3ccc(NC(=O)NC4CC4)c(Cl)c3)c2cc1C(N)=O [Lenvatinib]
- efficacy (HCT116 [1]): -61.7%
- AC50 cell viability (HCT116 [2]): 26.3 µM

Compound: CNC1CCC(N(Cc2cccc(-c3ccncc3)c2)C(=O)c2sc3ccccc3c2Cl)CC1 (centres undefined) [SAG]
- efficacy (HCT116 [1]): -98.5%
- AC50 cell viability (HCT116 [2]): 16.6 µM

Compound: COc1ccc(CC2c3cc(OC)c(OC)cc3CC[N+]2(C)CCC(=O)OCCCCCOC(=O)CC[N+]2(C)CCc3cc(OC)c(OC)cc3C2Cc2ccc(OC)c(OC)c2)cc1OC (centres undefined) [Atracurium besylate]
- efficacy (HCT116 [1]): -77.8%
- AC50 cell viability (HCT116 [2]): 23.5 µM

Compound: CNC(=O)c1cc(Oc2ccc(NC(=O)Nc3ccc(Cl)c(C(F)(F)F)c3)c(F)c2)ccn1 [Regorafenib]
- efficacy (HCT116 [1]): -85.3%
- AC50 cell viability (HCT116 [2]): 5.25 µM

Compound: N[S+](=O)([O-])c1ccc([S+](=O)([O-])Nc2cccc3c(Cl)c[nH]c23)cc1 [Indisulam (E7070)]
- efficacy (HCT116 [1]): -57.8%
- AC50 cell viability (HCT116 [2]): 1.86 µM

Compound: Cc1ccc(Sc2ccccc2N2CCNCC2)c(C)c1 [Brintellix]
- efficacy (HCT116 [1]): -92.6%
- AC50 cell viability (HCT116 [2]): 11.8 µM

Compound: C[C@@H]1CC[C@H]2[C@@H](C)C(=O)O[C@@H]3O[C@@]4(C)CC[C@@H]1[C@]32OO4 [Artemisinin]
- efficacy (HCT116 [1]): -30.7%
- AC50 cell viability (HCT116 [2]): 0.0295 µM

Compound: C/N=c1\ncc2cc(-c3cc(N/C(O)=N/CCC(C)(C)C)c(F)cc3C)c(C)nc2[nH]1
- efficacy (HCT116 [1]): -82.1%
- AC50 cell viability (HCT116 [2]): 2.63 µM

Compound: Cn1cc(/C=C/C(=O)c2cccc(F)c2)cc1/C=C/C(=O)NO [MC-1568]
- efficacy (HCT116 [1]): -49.8%
- AC50 cell viability (HCT116 [2]): 14.8 µM

Compound: COc1ccc(Nc2cc(-c3cnc(N)nc3)nc(N3CCOCC3)n2)cn1 [NIBR-17]
- efficacy (HCT116 [1]): -65.5%
- AC50 cell viability (HCT116 [2]): 2.63 µM

Compound: CC[C@H](CC#N)OC(=O)N[C@@H](C)c1cccc(NC(=O)Nc2ccc(-c3cnco3)c(OC)c2)c1 [AVN944]
- efficacy (HCT116 [1]): -72.8%
- AC50 cell viability (HCT116 [2]): 0.332 µM

Compound: Cc1cn(CCN2CCN(c3ccccc3-c3cc(C#N)cc(C(=O)NCCCN4CCCC4)c3)CC2)c2ccccc12 [LLY-507]
- efficacy (HCT116 [1]): -130%
- AC50 cell viability (HCT116 [2]): 26.3 µM

Compound: NC\1=N\C(=O)N(\C=C1)[C@@H]2O[C@H](CO)[C@@H](O)[C@@H]2O [Cytarabine]
- efficacy (HCT116 [1]): -61.7%
- AC50 cell viability (HCT116 [2]): 0.0742 µM

Compound: C[C@@H]1CCNC(=O)c2cc3ccc(C(=O)Nc4nc5ccccc5n4CCCN(C)C)cc3n21
- efficacy (HCT116 [1]): -92.3%
- AC50 cell viability (HCT116 [2]): 11.8 µM

Compound: COc1cc(C(=O)O)ccc1NC(=O)[C@@H]1N[C@@H](CC(C)(C)C)[C@](C#N)(c2ccc(Cl)cc2F)[C@H]1c1cccc(Cl)c1F [Idasanutlin]
- efficacy (HCT116 [1]): -67.9%
- AC50 cell viability (HCT116 [2]): 1.66 µM

Compound: C=CC(=O)N1CC[C@@H](Oc2nc(Nc3ccc(N4CCC(N5CCN(C)CC5)CC4)cc3)c(C(N)=O)nc2CC)C1 [Naquotinib mesylate]
- efficacy (HCT116 [1]): -103%
- AC50 cell viability (HCT116 [2]): 3.23 µM
